Experimental data taken from PMC4301037, “Identification and Structure–Function Analysis of Subfamily Selective G Protein-Coupled Receptor Kinase Inhibitors” (ACS Chemical Biology, 2014).
Like-named read-outs stand apart in the source and are kept apart here.

Assays:
PKA = target: T1, PKA (Mus musculus, UniProt P05132); assay: PKA inhibition assay (ADP-Glo, CREBtide, 100 μM ATP); format: biochemical; settings: logarithm of IC50 (−3.3 corresponds to 0.5 mM, footnote c); 438 nM PKA, 100 μM ATP, CREBtide; read-out: PKA log IC50 (converted)
T1 construct: His tag (inferred from pET15b vector and Ni-NTA column) (N); host or cells: E. coli Rosetta(DE3)pLysS

GRK2 [1] = target: T2, GRK2 (Homo sapiens, UniProt P25098, S670A); assay: DSF retest (confirmation), GRK2; format: binding; settings: for GRK2 Tm: 0.2 mg mL^–1 kinase; for GRK2 ΔTm: relative to intrinsic melting point of the kinase
T2 construct: made in house
T2 sequence (P25098 1-689 S670A): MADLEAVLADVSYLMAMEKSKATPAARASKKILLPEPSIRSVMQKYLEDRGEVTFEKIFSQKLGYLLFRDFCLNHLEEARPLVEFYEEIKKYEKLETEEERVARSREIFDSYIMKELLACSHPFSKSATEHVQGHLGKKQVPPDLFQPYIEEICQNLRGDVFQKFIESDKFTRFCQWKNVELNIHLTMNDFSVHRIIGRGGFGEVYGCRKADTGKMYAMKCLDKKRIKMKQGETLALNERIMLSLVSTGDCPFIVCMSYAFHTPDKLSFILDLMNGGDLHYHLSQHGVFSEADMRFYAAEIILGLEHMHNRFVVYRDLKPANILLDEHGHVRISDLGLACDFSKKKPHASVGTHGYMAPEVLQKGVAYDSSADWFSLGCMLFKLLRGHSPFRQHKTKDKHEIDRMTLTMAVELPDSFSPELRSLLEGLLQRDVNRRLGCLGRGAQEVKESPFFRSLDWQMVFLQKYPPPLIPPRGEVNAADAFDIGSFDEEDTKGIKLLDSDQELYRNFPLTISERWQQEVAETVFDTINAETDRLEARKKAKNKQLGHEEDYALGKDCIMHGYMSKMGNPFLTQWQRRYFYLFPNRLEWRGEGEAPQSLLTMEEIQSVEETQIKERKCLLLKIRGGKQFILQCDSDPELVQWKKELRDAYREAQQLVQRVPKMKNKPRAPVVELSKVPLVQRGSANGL

GRK5 [2] = target: T3, GRK5 (Bos taurus, UniProt P43249); assay: DSF retest (confirmation), GRK5; format: binding, bovine; settings: for GRK5 Tm: 0.2 mg mL^–1 kinase; for GRK5 ΔTm: relative to intrinsic melting point of the kinase
T3 construct: when using full-length kinases as the receptor[37] instead of isolated kinase domains; made in house
T3 sequence (P43249 whole entry, the tested form may be a part): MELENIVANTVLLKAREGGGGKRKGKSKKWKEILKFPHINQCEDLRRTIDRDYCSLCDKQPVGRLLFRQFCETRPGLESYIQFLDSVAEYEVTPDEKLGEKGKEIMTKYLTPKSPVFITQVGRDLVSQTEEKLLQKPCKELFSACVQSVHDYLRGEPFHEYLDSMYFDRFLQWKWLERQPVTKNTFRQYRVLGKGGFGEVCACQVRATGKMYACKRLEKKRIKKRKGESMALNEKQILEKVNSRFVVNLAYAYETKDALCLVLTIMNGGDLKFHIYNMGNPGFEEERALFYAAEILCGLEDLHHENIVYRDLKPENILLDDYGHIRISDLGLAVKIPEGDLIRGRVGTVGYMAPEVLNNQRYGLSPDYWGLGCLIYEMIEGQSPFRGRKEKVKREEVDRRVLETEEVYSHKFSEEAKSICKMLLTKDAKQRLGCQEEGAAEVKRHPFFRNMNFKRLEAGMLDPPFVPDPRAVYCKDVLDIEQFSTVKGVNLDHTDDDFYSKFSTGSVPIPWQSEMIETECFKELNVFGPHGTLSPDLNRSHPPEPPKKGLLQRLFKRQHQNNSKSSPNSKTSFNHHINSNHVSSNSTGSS

human GRK2S670A = target: T4, human GRK2S670A (Homo sapiens, UniProt P25098, S670A); assay: Primary DSF (differential scanning fluorimetry) inhibitor screen, GRK2; format: binding; settings: 10 μM compound, 2 μM kinase, relative to DMSO control; read-out: ΔTm, primary screen, GRK2
T4 construct: when using full-length kinases as the receptor[37] instead of isolated kinase domains; made in house
T4 sequence (P25098 1-689 S670A): T2 sequence (P25098 1-689 S670A)

protein kinase A (PKA) = target: T5, protein kinase A (PKA) (Mus musculus, UniProt P05132); assay: DSF retest (confirmation), PKA; format: binding; settings: for PKA Tm: 0.2 mg mL^–1 kinase; for PKA ΔTm: relative to intrinsic melting point of the kinase
T5 construct: His tag (inferred from pET15b vector and Ni-NTA column) (N); host or cells: E. coli Rosetta(DE3)pLysS
Procedure: Fourteen compounds (Figure 1a–c), including all GRK2 hits except staurosporine, and the most stabilizing pyrrolopyrimidine-containing compounds were obtained from GSK and retested using DSF on GRKs representing each vertebrate subfamily (GRK1, 2, and 5) (Table 1). […] The ability of these compounds to shift the Tm of the related AGC family kinase member protein kinase A (PKA) was also assessed (Table 1). In no case was ΔTm greater for PKA than for one of the tested GRKs. […]. There was no correlation for GRK1 (Figure 2c).
DSF was conducted using a ThermoFluor plate reader (Johnson & Johnson) in a buffer containing 20 mM HEPES, pH 7.0, 5 mM MgCl2, 2 mM DTT, and 1 mM CHAPS with 0.2 mg mL^–1 final concentration of GRK or PKA and 100 μM 1-anilinonaphthalene-8-sulfonic acid.[14]

GRK2 [3] = target: T6, GRK2 (Bos taurus, UniProt P21146, S670A); assay: In vitro phosphorylation assay (tubulin, 5 μM ATP), GRK2; format: biochemical, bovine; settings: for IC50: read-out: GRK2 log IC50 (converted)
T6 construct: made in house
T6 sequence (P21146 1-689 S670A): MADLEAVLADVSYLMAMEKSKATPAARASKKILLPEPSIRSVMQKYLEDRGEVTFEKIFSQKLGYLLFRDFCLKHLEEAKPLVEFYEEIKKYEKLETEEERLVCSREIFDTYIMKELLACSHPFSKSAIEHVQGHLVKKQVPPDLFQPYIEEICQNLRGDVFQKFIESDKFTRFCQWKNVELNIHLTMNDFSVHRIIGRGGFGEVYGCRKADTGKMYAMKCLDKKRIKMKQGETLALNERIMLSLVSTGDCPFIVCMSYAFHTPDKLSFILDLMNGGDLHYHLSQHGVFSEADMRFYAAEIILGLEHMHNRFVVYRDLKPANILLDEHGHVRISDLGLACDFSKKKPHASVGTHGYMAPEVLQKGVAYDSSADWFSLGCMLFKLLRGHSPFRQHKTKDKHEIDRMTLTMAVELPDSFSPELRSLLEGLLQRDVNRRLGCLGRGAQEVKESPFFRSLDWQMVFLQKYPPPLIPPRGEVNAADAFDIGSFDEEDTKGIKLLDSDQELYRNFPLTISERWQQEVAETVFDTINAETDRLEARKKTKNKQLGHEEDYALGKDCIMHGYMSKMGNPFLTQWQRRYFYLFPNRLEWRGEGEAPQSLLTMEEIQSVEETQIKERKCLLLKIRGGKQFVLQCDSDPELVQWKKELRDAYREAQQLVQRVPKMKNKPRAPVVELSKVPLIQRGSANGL

bovine GRK5 = target: T7, bovine GRK5 (Bos taurus, UniProt P43249); assay: Primary DSF inhibitor screen, GRK5; format: binding; settings: 10 μM compound; for ΔTm at 10 µM / ΔTm, primary screen, GRK5: 2 μM kinase, relative to DMSO control; for ΔTm at 10 µM: read-out: ΔTm, primary screen, GRK5; for rank in the primary screen, GRK5: rank ordering of compounds in primary DSF screen
T7 construct: when using full-length kinases as the receptor[37] instead of isolated kinase domains; made in house
T7 sequence (P43249 whole entry, the tested form may be a part): as the sequence (P43249 whole entry, the tested form may be a part) above

GRK1 [4] = target: T8, GRK1 (Bos taurus, UniProt P28327); assay: In vitro phosphorylation assay (tubulin, 5 μM ATP), GRK1; format: biochemical, bovine
T8 construct: Bovine GRK1_1–535, bovine and human GRK2S670A; made in house
T8 sequence (P28327 1-535): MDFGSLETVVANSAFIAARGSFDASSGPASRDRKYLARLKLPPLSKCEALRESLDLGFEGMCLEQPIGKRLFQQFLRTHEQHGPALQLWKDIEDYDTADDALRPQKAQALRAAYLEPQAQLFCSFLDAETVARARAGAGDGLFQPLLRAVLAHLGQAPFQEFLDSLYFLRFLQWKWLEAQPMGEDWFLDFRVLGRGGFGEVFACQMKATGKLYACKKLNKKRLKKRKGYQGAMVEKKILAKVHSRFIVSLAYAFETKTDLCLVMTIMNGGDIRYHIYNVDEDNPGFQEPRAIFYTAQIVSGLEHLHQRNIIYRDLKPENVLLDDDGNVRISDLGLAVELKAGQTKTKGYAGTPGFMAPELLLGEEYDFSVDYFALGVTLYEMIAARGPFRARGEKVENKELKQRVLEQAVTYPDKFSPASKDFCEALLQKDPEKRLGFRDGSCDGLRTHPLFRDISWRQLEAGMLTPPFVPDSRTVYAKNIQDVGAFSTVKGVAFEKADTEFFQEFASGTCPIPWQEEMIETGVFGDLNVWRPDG

GRK1, 2, and 5 and PKA = assay: Ssel selectivity score calculated from inhibition of GRK1, 2, 5 and PKA
GRK5 [5] = target: T3, GRK5; assay: In vitro phosphorylation assay (tubulin, 5 μM ATP), GRK5; format: biochemical, bovine; settings: for IC50: read-out: GRK5 log IC50 (converted)
GRK1 [6] = target: T8, GRK1; assay: DSF retest (confirmation), GRK1; format: binding, bovine; settings: for GRK1 Tm: 0.2 mg mL^–1 kinase; for GRK1 ΔTm: relative to intrinsic melting point of the kinase
[7] = selectivity score from inhibition of GRK1, 2, 5 and PKA, <0.5 selective
[8] = read-out: GRK1 log IC50 (converted)

IC50 (PKA)	GRK2 Tm (GRK2 [1])	GRK2 ΔTm (GRK2 [1])	GRK5 Tm (GRK5 [2])	GRK5 ΔTm (GRK5 [2])	PKA Tm (protein kinase A (PKA))	PKA ΔTm (protein kinase A (PKA))	IC50 (GRK2 [3])	ΔTm at 10 µM (bovine GRK5)	GRK2 fold (increase in potency relative to paroxetine) (GRK2 [3])	ΔTm, primary screen, GRK5 (bovine GRK5)	rank in the primary screen, GRK5 (bovine GRK5)	IC50 (GRK1 [4]; [8])	GRK1 fold (increase in potency relative to paroxetine) (GRK1 [4])	IC50 (GRK5 [5])	GRK5 fold (increase in potency relative to paroxetine) (GRK5 [5])	GRK1 Tm (GRK1 [6])	GRK1 ΔTm (GRK1 [6])	Structure (SMILES)	Ssel (GRK1, 2, and 5 and PKA; [7])	further results
> 501 µM	42.4 °C	4.9 °C	29.3 °C	2.5 °C	48.5 °C	3.1 °C	7.94 µM	6.35 °C										CCCN1CCC(c2ccc(Nc3nc(Nc4cc(F)ccc4C(N)=O)c4cc[nH]c4n3)c(OC)c2)CC1 [GSK1326255A]	0.586	ΔTm at 10 µM (human GRK2S670A): 3.29 °C; IC50 (GRK1 [4]): 501 µM
> 501 µM	40.6 °C	3.0 °C	32.6 °C	5.8 °C	46.6 °C	1.2 °C	20 µM	8.36 °C	0.063 fold	8.3 °C	7	0.631 µM	631 fold	3.16 µM	40 fold	18.5 °C	–1.4 °C	COc1cc2c(cc1Nc1nc(Nc3ccsc3C(N)=O)c3cc[nH]c3n1)N(C(=O)CN(C)C)CCC2 [GSK2110236A]	0.561	selectivity for GRK5 over GRK2 (GRK5 [5]; from IC50 values of Table 2): 6 fold
> 501 µM	38.8 °C	1.2 °C	30.5 °C	3.8 °C	45.4 °C	0.0 °C	200 µM	6.87 °C	0.0063 fold	6.9 °C	13	10 µM	40 fold	6.31 µM	20 fold	28.6 °C	8.7 °C	CNC(=O)c1ncccc1Nc1nc(Nc2cc3c(cc2OC)CCCN3C(=O)CN(C)C)nc2[nH]ccc12 [GSK2220400A]	0.770	lower potency against GRK1 (GRK1 [4]; relative to GSK2163632A): 100 fold

Structure (SMILES)	IC50 (PKA)	GRK2 Tm (GRK2 [1])	GRK2 ΔTm (GRK2 [1])	GRK5 Tm (GRK5 [2])	GRK5 ΔTm (GRK5 [2])	PKA Tm (protein kinase A (PKA))	PKA ΔTm (protein kinase A (PKA))	IC50 (GRK2 [3])	ΔTm at 10 µM (bovine GRK5)	GRK2 fold (increase in potency relative to paroxetine) (GRK2 [3])	ΔTm, primary screen, GRK5 (bovine GRK5)	rank in the primary screen, GRK5 (bovine GRK5)	IC50 (GRK1 [4]; [8])	GRK1 fold (increase in potency relative to paroxetine) (GRK1 [4])	IC50 (GRK5 [5])	GRK5 fold (increase in potency relative to paroxetine) (GRK5 [5])	GRK1 Tm (GRK1 [6])	GRK1 ΔTm (GRK1 [6])	Ssel (GRK1, 2, and 5 and PKA; [7])	further results
Fc1ccc([C@@H]2CCNC[C@H]2COc2ccc3c(c2)OCO3)cc1 [paroxetine]	> 501 µM					50.1 °C	4.7 °C													Ssel (GRK1, 2, and 5 and PKA): 0.085
